# According to ChEMBL document CHEMBL5316381, “Discovery of [1,2,3]Triazolo[4,5-c]quinoline Derivatives as a New Class of Ataxia-Telangiectasia Mutated Kinase Inhibitors” (ACS Med Chem Lett, 2023):
# Active and inactive are the calls of the source. No cut-off for these calls is given here.
# Assays:
# SW-620 [1] = assay: Radiosensitizing activity against human SW620 cells assessed as reduction in colony formation at 9 nM incubated after 14 days in the presence of 3 Gy irradiation by crystal violet staining based analysis; type: functional, cell-based; details: time 14.0 day
# [2] = target: Serine-protein kinase ATM (Homo sapiens, UniProt Q13315); assay: Inhibition of ATM (unknown origin) using GST-cMyc-p53 as substrate incubated for 30 mins in presence of Mg/ATP mix by HTRF-based analysis
# [3] = target: PI3-kinase p110-alpha/p85-alpha (Homo sapiens, UniProt P42336); assay: Inhibition of human PI3K p110 alpha/p85 alpha using phosphatidylinositol-4, 5-bisphosphate as substrate incubated for 30 mins in the presence of Mg/ATP mix by HTRF-based analysis; type: protein-complex assay
# [4] = target: DNA-dependent protein kinase catalytic subunit (Homo sapiens, UniProt P78527); assay: Inhibition of DNA-PK (unknown origin) using GST-cMyc-p53 as substrate incubated for 30 mins in the presence of Mg/ATP mix by HTRF-based analysis
# [5] = target: Serine/threonine-protein kinase ATR (Homo sapiens, UniProt Q13535); assay: Inhibition of ATR (unknown origin) using GST-cMyc-p53 as substrate incubated for 30 mins in the presence of Mg/ATP mix by HTRF-based analysis
# SW-620 [6] = assay: Radiosensitizing activity against human SW620 cells assessed as reduction in colony formation at 27 nM incubated after 14 days in the presence of 1.5 Gy irradiation by crystal violet staining based analysis; type: functional, cell-based; details: time 14.0 day
# SW-620 [7] = assay: Cell cycle arrest in human SW620 cells assessed as accumulation of cells at G2/M phase upto 100 nM incubated for 24 hrs by PI staining based flow cytometric analysis; type: functional
# SW-620 [8] = assay: Induction of apoptosis in human SW620 cells assessed as early apoptotic cells at 100 nM measured after 72 hrs in presence of CPT-11 by Annexin V-FITC staining based flow cytometric analysis (reference value: 1.06%); type: functional
# SW-620 [9] = assay: Induction of apoptosis in human SW620 cells assessed as necrotic cells at 100 nM measured after 72 hrs in presence of CPT-11 by Annexin V-FITC staining based flow cytometric analysis (reference value: 5.83%); type: functional
# SW-620 [10] = assay: Induction of apoptosis in human SW620 cells assessed as late apoptotic cells at 30 nM measured after 72 hrs in presence of CPT-11 by Annexin V-FITC staining based flow cytometric analysis (reference value: 5.75%); type: functional
# SW-620 [11] = assay: Induction of apoptosis in human SW620 cells assessed as late apoptotic cells at 10 nM measured after 72 hrs in presence of CPT-11 by Annexin V-FITC staining based flow cytometric analysis (reference value: 5.75%); type: functional
# SW-620 [12] = assay: Induction of apoptosis in human SW620 cells assessed as viable cells at 100 nM measured after 72 hrs by Annexin V-FITC staining based flow cytometric analysis (reference value: 87.36%); type: functional; details: read-out: Activity
# SW-620 [13] = assay: Induction of apoptosis in human SW620 cells assessed as early apoptotic cells at 100 nM measured after 72 hrs by Annexin V-FITC staining based flow cytometric analysis (reference value: 1.06%); type: functional
# HCT-116 [14] = assay: Induction of apoptosis in human HCT-116 cells assessed as early apoptotic cells at 1 uM measured after 72 hrs by Annexin V-FITC staining based flow cytometric analysis (reference value: 4.06%); type: functional
# HCT-116 [15] = assay: Induction of apoptosis in human HCT-116 cells assessed as viable cells at 100 nM measured after 72 hrs in presence of CPT-11 by Annexin V-FITC staining based flow cytometric analysis (reference value: 73.74%); type: functional; details: read-out: Activity
# HCT-116 [16] = assay: Induction of apoptosis in human HCT-116 cells assessed as late apoptotic cells at 100 nM measured after 72 hrs in presence of CPT-11 by Annexin V-FITC staining based flow cytometric analysis (reference value: 19.80%); type: functional
# HCT-116 [17] = assay: Induction of apoptosis in human HCT-116 cells assessed as early apoptotic cells at 30 nM measured after 72 hrs in presence of CPT-11 by Annexin V-FITC staining based flow cytometric analysis (reference value: 4.06%); type: functional
# HCT-116 [18] = assay: Induction of apoptosis in human HCT-116 cells assessed as necrotic cells at 30 nM measured after 72 hrs in presence of CPT-11 by Annexin V-FITC staining based flow cytometric analysis (reference value: 2.41%); type: functional
# HCT-116 [19] = assay: Induction of apoptosis in human HCT-116 cells assessed as viable cells at 10 nM measured after 72 hrs in presence of CPT-11 by Annexin V-FITC staining based flow cytometric analysis (reference value: 73.74%); type: functional; details: read-out: Activity
# HCT-116 [20] = assay: Induction of apoptosis in human HCT-116 cells assessed as early apoptotic cells at 10 nM measured after 72 hrs in presence of CPT-11 by Annexin V-FITC staining based flow cytometric analysis (reference value: 4.06%); type: functional
# HCT-116 [21] = assay: Induction of apoptosis in human HCT-116 cells assessed as late apoptotic cells at 10 nM measured after 72 hrs in presence of CPT-11 by Annexin V-FITC staining based flow cytometric analysis (reference value: 19.80%); type: functional
# [22] = target: Serine/threonine-protein kinase Chk2 (Homo sapiens) (UniProt O96017); assay: Inhibition of CPT-11 induced Chk2 phosphorylation in human SW620 cells by SDS-PAGE based Westernblot analysis; type: cell-based
# [23] = Toxicity in BALB/c mouse xenografted with human SW620 cells assessed as lung damage at 5 mg/kg, ip administered once daily and measured after 23 days by H&E staining based microscopic analysis; type: organism-based, SW-620; details: in vivo, 552 h, time 23 day
# SW-620 [24] = assay: Anticancer activity against human SW620 cells assessed as reduction in cell viability by measuring fold change in CPT-11 IC50 at 100 nM incubated for 5 days by MTT assay relative irinotecan alone; type: functional; details: time 5 day
# [25] = target: T1, Serine/threonine-protein kinase Chk1 (Homo sapiens) (UniProt O14757); assay: Inhibition of CPT-11 induced Chk1 phosphorylation in human SW620 cells by SDS-PAGE based Westernblot analysis; type: cell-based
# T1 sequence (whole entry): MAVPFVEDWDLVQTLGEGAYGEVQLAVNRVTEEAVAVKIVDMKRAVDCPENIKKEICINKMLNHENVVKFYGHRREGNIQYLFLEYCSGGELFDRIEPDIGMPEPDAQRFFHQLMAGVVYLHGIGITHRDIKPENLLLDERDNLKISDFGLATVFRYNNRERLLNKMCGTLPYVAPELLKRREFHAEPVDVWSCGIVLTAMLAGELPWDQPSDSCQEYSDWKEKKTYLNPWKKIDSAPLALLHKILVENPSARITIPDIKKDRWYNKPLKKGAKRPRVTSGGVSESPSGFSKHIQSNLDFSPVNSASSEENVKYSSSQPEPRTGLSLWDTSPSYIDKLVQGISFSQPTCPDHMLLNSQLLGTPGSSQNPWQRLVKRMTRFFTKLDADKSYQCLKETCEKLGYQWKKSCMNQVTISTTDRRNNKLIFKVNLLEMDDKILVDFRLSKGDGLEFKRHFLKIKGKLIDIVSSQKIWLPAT
# Serine/threonine-protein kinase Chk2 (Homo sapiens), sequence (O96017 whole entry): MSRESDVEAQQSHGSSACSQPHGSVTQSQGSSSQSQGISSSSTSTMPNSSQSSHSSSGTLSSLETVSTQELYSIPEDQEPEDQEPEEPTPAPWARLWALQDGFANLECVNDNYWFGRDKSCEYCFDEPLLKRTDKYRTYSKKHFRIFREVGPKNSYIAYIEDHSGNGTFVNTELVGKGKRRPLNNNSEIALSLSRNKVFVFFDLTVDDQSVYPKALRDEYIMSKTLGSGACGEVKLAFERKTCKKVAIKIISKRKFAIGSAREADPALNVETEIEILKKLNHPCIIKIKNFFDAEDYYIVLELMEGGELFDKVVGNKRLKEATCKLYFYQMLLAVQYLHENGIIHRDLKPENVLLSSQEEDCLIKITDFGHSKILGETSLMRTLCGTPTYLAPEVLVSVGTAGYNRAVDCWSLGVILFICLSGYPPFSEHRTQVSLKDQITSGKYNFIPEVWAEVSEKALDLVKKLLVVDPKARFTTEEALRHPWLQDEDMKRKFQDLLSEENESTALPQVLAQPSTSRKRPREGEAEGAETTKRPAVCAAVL
# PI3-kinase p110-alpha/p85-alpha, sequence (P27986 whole entry): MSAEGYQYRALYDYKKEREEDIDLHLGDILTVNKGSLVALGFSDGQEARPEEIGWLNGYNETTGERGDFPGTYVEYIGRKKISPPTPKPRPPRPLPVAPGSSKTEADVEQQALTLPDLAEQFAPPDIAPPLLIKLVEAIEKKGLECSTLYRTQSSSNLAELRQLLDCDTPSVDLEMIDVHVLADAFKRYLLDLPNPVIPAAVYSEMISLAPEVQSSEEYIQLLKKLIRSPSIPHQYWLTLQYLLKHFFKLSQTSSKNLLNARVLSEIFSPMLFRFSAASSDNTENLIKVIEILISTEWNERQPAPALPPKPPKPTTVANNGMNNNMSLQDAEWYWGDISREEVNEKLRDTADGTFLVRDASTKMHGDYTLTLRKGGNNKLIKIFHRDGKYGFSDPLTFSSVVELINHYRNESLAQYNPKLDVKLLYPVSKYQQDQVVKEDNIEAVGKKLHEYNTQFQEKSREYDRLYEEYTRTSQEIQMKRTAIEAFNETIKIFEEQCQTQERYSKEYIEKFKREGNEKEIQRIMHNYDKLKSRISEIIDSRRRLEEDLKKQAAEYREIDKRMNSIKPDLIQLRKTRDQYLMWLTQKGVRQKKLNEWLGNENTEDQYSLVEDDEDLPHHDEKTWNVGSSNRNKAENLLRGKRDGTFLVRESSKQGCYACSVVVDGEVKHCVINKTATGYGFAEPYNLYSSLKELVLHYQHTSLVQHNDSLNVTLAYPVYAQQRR
# PI3-kinase p110-alpha/p85-alpha, sequence (P42336 whole entry): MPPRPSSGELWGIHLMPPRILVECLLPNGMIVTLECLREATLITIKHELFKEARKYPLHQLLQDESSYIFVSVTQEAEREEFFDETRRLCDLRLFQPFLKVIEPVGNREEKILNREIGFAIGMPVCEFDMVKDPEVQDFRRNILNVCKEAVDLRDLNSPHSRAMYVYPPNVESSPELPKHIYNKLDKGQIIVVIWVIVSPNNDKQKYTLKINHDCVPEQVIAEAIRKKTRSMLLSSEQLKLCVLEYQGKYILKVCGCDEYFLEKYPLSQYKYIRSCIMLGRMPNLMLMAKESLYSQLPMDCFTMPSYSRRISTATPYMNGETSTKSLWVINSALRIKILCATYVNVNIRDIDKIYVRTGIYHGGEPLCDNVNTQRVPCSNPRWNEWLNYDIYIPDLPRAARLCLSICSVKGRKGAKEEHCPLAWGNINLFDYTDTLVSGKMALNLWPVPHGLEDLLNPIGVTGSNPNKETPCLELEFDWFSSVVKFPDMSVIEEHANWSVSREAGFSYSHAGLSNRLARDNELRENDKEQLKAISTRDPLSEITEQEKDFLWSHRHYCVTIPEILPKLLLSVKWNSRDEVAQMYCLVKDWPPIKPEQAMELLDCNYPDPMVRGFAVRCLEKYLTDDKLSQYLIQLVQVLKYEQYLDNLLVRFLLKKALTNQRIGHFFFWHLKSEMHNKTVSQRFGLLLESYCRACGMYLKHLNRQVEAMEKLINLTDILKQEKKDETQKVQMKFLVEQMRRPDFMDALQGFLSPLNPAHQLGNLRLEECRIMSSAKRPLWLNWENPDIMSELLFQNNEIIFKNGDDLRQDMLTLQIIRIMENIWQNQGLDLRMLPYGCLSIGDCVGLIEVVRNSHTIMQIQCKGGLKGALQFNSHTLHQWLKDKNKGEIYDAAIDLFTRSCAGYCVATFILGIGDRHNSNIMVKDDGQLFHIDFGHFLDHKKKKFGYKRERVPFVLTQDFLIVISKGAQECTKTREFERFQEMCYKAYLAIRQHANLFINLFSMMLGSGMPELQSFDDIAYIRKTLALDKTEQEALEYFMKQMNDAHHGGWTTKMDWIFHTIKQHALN
# Serine/threonine-protein kinase ATR, sequence (Q13535 whole entry): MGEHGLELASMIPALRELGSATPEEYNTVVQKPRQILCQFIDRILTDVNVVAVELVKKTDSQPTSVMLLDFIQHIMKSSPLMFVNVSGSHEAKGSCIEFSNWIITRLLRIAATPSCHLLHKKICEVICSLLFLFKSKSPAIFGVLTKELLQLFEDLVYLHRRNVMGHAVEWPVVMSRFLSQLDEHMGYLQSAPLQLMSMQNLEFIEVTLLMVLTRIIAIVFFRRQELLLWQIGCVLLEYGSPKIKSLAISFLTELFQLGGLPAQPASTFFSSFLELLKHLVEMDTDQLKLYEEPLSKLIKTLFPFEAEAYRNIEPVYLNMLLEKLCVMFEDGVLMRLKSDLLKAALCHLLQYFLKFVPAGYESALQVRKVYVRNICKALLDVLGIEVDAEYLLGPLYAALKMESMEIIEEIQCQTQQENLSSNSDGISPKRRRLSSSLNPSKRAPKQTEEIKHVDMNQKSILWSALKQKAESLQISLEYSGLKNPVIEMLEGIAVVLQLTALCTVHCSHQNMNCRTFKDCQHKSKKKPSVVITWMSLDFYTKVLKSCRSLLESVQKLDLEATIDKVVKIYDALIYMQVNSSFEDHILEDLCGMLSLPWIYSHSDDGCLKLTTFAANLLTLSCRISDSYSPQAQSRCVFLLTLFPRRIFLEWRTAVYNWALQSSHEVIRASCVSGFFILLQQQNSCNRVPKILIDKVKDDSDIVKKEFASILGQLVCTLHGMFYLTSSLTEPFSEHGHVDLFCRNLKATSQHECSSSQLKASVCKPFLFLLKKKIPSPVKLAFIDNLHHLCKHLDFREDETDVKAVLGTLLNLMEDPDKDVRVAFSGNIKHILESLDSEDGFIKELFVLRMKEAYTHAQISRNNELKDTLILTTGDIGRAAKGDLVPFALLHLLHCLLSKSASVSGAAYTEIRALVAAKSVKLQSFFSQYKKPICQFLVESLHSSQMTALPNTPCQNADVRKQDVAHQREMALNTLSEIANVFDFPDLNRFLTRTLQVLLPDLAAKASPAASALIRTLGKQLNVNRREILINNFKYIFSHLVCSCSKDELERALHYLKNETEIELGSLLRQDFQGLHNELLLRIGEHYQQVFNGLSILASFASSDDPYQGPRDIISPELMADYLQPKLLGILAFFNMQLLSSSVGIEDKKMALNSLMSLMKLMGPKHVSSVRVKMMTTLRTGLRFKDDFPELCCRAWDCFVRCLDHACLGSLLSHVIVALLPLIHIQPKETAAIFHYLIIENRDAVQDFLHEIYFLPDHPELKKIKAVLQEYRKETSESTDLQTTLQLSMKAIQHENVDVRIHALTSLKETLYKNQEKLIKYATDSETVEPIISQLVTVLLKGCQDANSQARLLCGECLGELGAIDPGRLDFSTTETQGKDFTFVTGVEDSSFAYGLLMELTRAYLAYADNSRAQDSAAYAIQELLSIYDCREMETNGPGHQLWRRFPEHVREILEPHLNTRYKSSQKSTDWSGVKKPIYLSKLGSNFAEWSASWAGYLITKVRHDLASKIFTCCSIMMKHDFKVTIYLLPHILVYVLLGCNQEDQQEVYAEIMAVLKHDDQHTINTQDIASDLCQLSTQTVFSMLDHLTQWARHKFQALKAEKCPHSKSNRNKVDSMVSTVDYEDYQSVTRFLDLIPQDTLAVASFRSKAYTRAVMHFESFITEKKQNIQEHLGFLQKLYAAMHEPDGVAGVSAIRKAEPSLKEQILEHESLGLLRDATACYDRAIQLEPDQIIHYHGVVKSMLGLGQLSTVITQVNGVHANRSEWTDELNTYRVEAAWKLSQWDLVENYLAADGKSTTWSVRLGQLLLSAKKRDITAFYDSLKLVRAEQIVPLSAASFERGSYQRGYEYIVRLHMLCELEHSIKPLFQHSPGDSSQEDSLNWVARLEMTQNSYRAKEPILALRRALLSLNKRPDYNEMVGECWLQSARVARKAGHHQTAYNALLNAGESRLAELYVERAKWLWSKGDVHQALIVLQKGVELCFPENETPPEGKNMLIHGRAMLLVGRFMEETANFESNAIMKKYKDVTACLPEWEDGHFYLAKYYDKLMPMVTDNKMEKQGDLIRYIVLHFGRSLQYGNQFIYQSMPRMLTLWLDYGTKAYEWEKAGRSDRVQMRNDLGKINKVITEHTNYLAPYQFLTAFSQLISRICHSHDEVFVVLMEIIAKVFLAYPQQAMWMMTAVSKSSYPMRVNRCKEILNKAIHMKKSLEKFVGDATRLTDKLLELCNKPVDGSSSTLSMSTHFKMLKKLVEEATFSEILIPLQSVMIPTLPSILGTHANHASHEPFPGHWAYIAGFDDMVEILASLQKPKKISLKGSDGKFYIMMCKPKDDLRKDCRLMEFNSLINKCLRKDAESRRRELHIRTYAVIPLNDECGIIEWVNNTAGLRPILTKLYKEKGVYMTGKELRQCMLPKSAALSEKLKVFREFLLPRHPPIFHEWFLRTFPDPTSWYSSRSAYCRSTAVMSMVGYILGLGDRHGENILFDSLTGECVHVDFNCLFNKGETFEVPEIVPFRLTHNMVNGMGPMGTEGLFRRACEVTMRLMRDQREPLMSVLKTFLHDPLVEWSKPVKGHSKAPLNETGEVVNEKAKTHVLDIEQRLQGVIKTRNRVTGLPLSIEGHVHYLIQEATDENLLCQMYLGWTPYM
smiles,measurement,setting,value
C[C@H](c1ccccc1)n1nnc2cnc3ccc(-c4ccc(OCCCN(C)C)nc4)cc3c21,Activity,SW-620 [1],Active
same,IC50,[2],0.001 µM
same,IC50,[3],> 10 µM
same,IC50,[4],0.123 µM
same,IC50,[5],> 10 µM
same,Activity,SW-620 [6],Active
same,Activity,SW-620 [7],inactive
same,Activity,SW-620 [8],7.18%
same,Activity,SW-620 [9],1.63%
same,Activity,SW-620 [10],44%
same,Activity,SW-620 [11],27.19%
same,viability at 0.1 µM,SW-620 [12],80.2%
same,Activity,SW-620 [13],1.88%
same,Activity,HCT-116 [14],1.34%
same,viability at 0.1 µM,HCT-116 [15],22%
same,Activity,HCT-116 [16],68.15%
same,Activity,HCT-116 [17],2.23%
same,Activity,HCT-116 [18],8.39%
same,viability at 0.01 µM,HCT-116 [19],55.8%
same,Activity,HCT-116 [20],1.1%
same,Activity,HCT-116 [21],34.21%
same,inhibition,[22],Dose-Dependent Effect
same,Activity,[23],Non-Toxic
same,fold change (FC),SW-620 [24],4.4
same,inhibition,[25],inactive
